Columns and labels:
[1] = biological target: hERG potassium channel (Homo sapiens, UniProt Q12809); experiment: hERG screening assay (PatchXpress patch clamp, CHO cells)
[2] = system: L-type calcium channel; experiment: L-type calcium channel activity well-plate assay (IMR-32 cells, Ca-4 dye, FlexStation); assay type: cell-based, human
Description: Cell Culture: IMR-32 (human neuroblastoma) cells were obtained from The American Type Culture Collection. The cells were maintained in MEM supplemented with 10% fetal bovine serum, 2 mM of L-glutamine, 100 IU/ml of penicillin, 50 μg/ml of streptomycin, 1% of sodium pyruvate, 1% of sodium bicarbonate and 1% of non-essential amino acid. […] Culture medium was changed every two days and cells were recultivated when they reached 70-80% confluent.
Assay: IMR-32 cells were seeded on a Microtest 96-well Assay Plate (BD FALCON™) at a density of 200,000 cells/well in 200 μl culture medium for overnight. The culture medium was removed, and replaced by 120 μl Ca-4 dye (MDS Analytical Technologies, Sunnyvale, Calif.) in HBSS (1× Hank's Balanced Salt solution plus 20 mM HEPES, pH 7.4) containing 2 mM probenecid. Cells were then incubated for 1 hour at 37° in incubator. Testing compounds were diluted from 5 μM-50 μM in HBSS, and 40 μl were added in cells before assay. […] The inhibition of L-type calcium channel activity by compounds was then calculated.

Chain of hERG potassium channel (Q12809 whole entry): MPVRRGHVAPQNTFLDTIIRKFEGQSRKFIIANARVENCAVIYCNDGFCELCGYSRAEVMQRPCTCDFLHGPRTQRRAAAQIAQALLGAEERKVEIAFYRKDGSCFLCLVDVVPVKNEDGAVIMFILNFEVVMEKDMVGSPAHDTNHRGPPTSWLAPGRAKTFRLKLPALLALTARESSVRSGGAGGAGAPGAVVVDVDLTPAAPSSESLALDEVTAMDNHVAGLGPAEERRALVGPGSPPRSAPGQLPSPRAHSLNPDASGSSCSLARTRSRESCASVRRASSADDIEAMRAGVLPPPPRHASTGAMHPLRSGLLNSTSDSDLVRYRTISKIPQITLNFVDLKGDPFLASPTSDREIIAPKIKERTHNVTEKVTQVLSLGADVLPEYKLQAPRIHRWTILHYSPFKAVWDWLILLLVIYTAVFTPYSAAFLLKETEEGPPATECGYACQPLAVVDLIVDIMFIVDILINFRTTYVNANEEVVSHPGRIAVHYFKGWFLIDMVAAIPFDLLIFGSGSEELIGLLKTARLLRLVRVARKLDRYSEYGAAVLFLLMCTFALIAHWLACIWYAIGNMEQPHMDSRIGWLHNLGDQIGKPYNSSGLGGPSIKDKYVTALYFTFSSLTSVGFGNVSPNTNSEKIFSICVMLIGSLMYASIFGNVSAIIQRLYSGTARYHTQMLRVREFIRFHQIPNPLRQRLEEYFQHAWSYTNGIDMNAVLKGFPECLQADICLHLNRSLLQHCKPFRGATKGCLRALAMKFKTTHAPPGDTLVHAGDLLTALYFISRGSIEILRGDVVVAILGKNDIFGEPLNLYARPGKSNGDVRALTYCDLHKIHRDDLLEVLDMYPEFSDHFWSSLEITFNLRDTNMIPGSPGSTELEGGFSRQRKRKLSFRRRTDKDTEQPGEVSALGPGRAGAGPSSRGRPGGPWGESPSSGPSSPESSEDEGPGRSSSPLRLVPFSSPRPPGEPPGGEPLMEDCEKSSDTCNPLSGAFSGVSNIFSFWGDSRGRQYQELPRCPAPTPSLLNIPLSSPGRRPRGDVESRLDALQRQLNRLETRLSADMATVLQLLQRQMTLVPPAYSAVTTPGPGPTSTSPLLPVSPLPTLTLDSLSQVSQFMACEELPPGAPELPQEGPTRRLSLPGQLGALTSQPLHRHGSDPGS

Structure (SMILES)	hERG Patch Clamp hERG % blk (1 μM test cmpd) [1]	hERG Patch Clamp hERG % blk (10 μM test cmpd) [1]	CaL Plate Assay % blk (1 μM test cmpd) [2]	CaL Plate Assay % blk (10 μM test cmpd) [2]
CCOC(=O)C1=C(C)Nc2nnnn2C1c1ccc2ccccc2c1 (centres unmarked) [PT-008, ethyl 5-methyl-7-(naphthalen-2-yl)-4,7-dihydrotetrazolo[1,5-a]pyrimidine-6-carboxylate]	10%	33.5%	0%	9%
CC1=C(C(=O)OCC(F)(F)F)C(c2cccc3ccccc23)n2nnnc2N1 (centres unmarked) [PT-014, 2,2,2-trifluoroethyl 5-methyl-7-(naphthalen-1-yl)-4,7-dihydrotetrazolo[1,5-a]pyrimidine-6-carboxylate]	–	–	0%	40%
CC1=C(C(=O)OCc2ccccc2)C(c2cccc3ccccc23)n2nnnc2N1 (centres unmarked) [PT-027, benzyl 5-methyl-7-(naphthalen-1-yl)-4,7-dihydrotetrazolo[1,5-a]pyrimidine-6-carboxylate]	14%	64.5%	0%	0%
CC1=C(C(=O)OCc2ccccc2)C(c2c3ccccc3cc3ccccc23)n2nnnc2N1 (centres unmarked) [PT-039, benzyl 7-(anthracen-9-yl)-5-methyl-4,7-dihydrotetrazolo[1,5-a]pyrimidine-6-carboxylate]	10%	27.5%	2%	0%
CC1=C(C(=O)OCc2ccccc2)C(c2cccs2)n2nnnc2N1 (centres unmarked) [PT-040, benzyl 5-methyl-7-(thiophen-2-yl)-4,7-dihydrotetrazolo[1,5-a]pyrimidine-6-carboxylate]	14.5%	24.5%	0%	18%
CC1=C(C(=O)OCc2ccccc2)C(c2csc3ccccc23)n2nnnc2N1 (centres unmarked) [PT-042, benzyl 7-(benzo[b]thiophen-3-yl)-5-methyl-4,7-dihydrotetrazolo[1,5-a]pyrimidine-6-carboxylate]	11%	52.5%	0%	16%
CC1=C(C(=O)OCc2ccccc2)C(c2cc3ccccc3s2)n2nnnc2N1 (centres unmarked) [PT-043, benzyl 7-(benzo[b]thiophen-2-yl)-5-methyl-4,7-dihydrotetrazolo[1,5-a]pyrimidine-6-carboxylate]	–	–	23%	60%
CC1=C(C(=O)OCc2ccccc2)C(c2sc3ccccc3c2C)n2nnnc2N1 (centres unmarked) [PT-044, benzyl 5-methyl-7-(3-methylbenzo[b]thiophen-2-yl)-4,7-dihydrotetrazolo[1,5-a]pyrimidine-6-carboxylate]	16.5%	40%	7%	35%
CC1=C(C(=O)O[C@@H](C)c2ccccc2)C(c2cccc3ccccc23)n2nnnc2N1 (stereo partly drawn) [PT-048, (S)-1-phenylethyl 5-methyl-7-(naphthalen-1-yl)-4,7-dihydrotetrazolo[1,5-a]pyrimidine-6-carboxylate]	–	–	0%	74%
N#CC1=C(N)OC2=C(C(=O)CC(c3ccccc3)C2)C1c1ccsc1 (centres unmarked) [PT-102, 2-amino-5-oxo-7-phenyl-4-(thiophen-3-yl)-5,6,7,8-tetrahydro-4H-chromene-3-carbonitrile]	–	–	6%	51%
CCOC(=O)C1=C(C)NC(C)=C(C(=O)OCC)C1c1ccsc1 [PT-110, diethyl 2,6-dimethyl-4-(thiophen-3-yl)-1,4-dihydropyridine-3,5-dicarboxylate]	–	–	86%	88%
CCOC(=O)C1=C(C)NC(C)=C(C(=O)OCC)C1c1csc2ccccc12 [PT-115, diethyl 4-(benzo[b]thiophen-3-yl)-2,6-dimethyl-1,4-dihydropyridine-3,5-dicarboxylate]	–	–	52%	65%
CCOC(=O)C1=C(C)NC(C)=C(C(=O)OCC)C1c1ccc(CC)o1 [PT-121, diethyl 4-(5-ethylfuran-2-yl)-2,6-dimethyl-1,4-dihydropyridine-3,5-dicarboxylate]	–	–	35%	72%
CCOC(=O)C1=C(C)NC2=C(C(=O)CCC2)C1c1ccc(C)c2ccccc12 (centres unmarked) [PT-135, ethyl 2-methyl-4-(4-methylnaphthalen-1-yl)-5-oxo-1,4,5,6,7,8-hexahydroquinoline-3-carboxylate]	–	–	24%	62%
CCCC1=C(C(=O)OCC)C(c2ccsc2)C2=C(CC(c3ccco3)CC2=O)N1 (centres unmarked) [PT-150, ethyl 7-(furan-2-yl)-5-oxo-2-propyl-4-(thiophen-3-yl)-1,4,5,6,7,8-hexahydroquinoline-3-carboxylate]	–	–	4%	71%
CC1=C(C(=O)OC(C)C)C(c2ccc3ccccc3c2)C2=C(CCCC2=O)N1 (centres unmarked) [PT-157, isopropyl 2-methyl-4-(naphthalen-2-yl)-5-oxo-1,4,5,6,7,8-hexahydroquinoline-3-carboxylate]	–	–	3%	43%
CC1=C(C(=O)NCCCCc2ccccc2)C(c2ccsc2)C2=C(CCCC2=O)N1 (centres unmarked) [PT-164, 2-methyl-5-oxo-N-(4-phenylbutyl)-4-(thiophen-3-yl)-1,4,5,6,7,8-hexahydroquinoline-3-carboxamide]	–	–	20%	77%
CC1=C(C(=O)OCc2ccccc2)C(c2occc2-c2ccc(F)cc2)n2nnnc2N1 (centres unmarked) [PT-396, benzyl 7-(3-(4-fluorophenyl)furan-2-yl)-5-methyl-4,7-dihydrotetrazolo[1,5-a]pyrimidine-6-carboxylate]	10%	32%	–	–
CC1=C(C(=O)OCc2ccccc2)C(c2sccc2-c2ccc(F)cc2)n2nnnc2N1 (centres unmarked) [PT-397, benzyl 7-(3-(4-fluorophenyl)thiophen-2-yl)-5-methyl-4,7-dihydrotetrazolo[1,5-a]pyrimidine-6-carboxylate]	10%	25%	–	–
CC(=O)c1ccc(-c2ccccc2C2C(C(=O)OCc3ccccc3)=C(C)Nc3nnnn32)cc1 (centres unmarked) [PT-415, benzyl 7-(4′-acetylbiphenyl-2-yl)-5-methyl-4,7-dihydrotetrazolo[1,5-a]pyrimidine-6-carboxylate]	10.5%	38.5%	–	–
CCOC(=O)C1=C(C)Nc2[nH]ncc2C1c1ccc(OC)cc1OCc1ccccc1 (centres unmarked) [PT-445, ethyl 4-(2-(benzyloxy)-4-methoxyphenyl)-6-methyl-4,7-dihydro-1H-pyrazolo[3,4-b]pyridine-5-carboxylate]	10.5%	50%	–	–
CCOC(=O)C1=C(C)Nc2[nH]ncc2C1c1ccccc1Br (centres unmarked) [PT-448, ethyl 4-(2-bromophenyl)-6-methyl-4,7-dihydro-1H-pyrazolo[3,4-b]pyridine-5-carboxylate]	10%	57.5%	–	–
CCOC(=O)C1=C(C)Nc2nnnn2C1c1ccccc1-n1ccnc1C.Cl (centres unmarked) [PT-457, ethyl 5-methyl-7-(2-(2-methyl-1H-imidazol-1-yl)phenyl)-4,7-dihydrotetrazolo[1,5-a]pyrimidine-6-carboxylate hydrochloride]	10%	21%	–	–
CCOC(=O)C1=C(C)Nc2nnnn2C1c1cccc(Oc2ccccc2)c1 (centres unmarked) [PT-464, ethyl 5-methyl-7-(3-phenoxyphenyl)-4,7-dihydrotetrazolo[1,5-a]pyrimidine-6-carboxylate]	11%	55%	–	–
CCOC(=O)C1=C(C)Nc2nnnn2C1c1ccccc1-n1ccnc1.Cl (centres unmarked) [PT-476, ethyl 7-(2-(1H-imidazol-1-yl)phenyl)-5-methyl-4,7-dihydrotetrazolo[1,5-a]pyrimidine-6-carboxylate hydrochloride]	17.5%	23%	–	–
CCOC(=O)C1=C(C)Nc2nnnn2C1c1ccccc1-n1cccn1.Cl (centres unmarked) [PT-477, ethyl 7-(2-(1H-pyrazol-1-yl)phenyl)-5-methyl-4,7-dihydrotetrazolo[1,5-a]pyrimidine-6-carboxylate hydrochloride]	12%	44%	–	–
CCOC(=O)C1=C(C)Nc2nnnn2C1c1ccccc1-c1cccc(-c2nnn[nH]2)c1 (centres unmarked) [PT-493, ethyl 7-(3′-(1H-tetrazol-5-yl)biphenyl-2-yl)-5-methyl-4,7-dihydrotetrazolo[1,5-a]pyrimidine-6-carboxylate]	10%	10%	–	–
COC(=O)C1=C(C)Nc2nnnn2C1c1cccc2ccccc12 (centres unmarked) [PT-512, methyl 5-methyl-7-(naphthalen-1-yl)-4,7-dihydrotetrazolo[1,5-a]pyrimidine-6-carboxylate]	10.5%	14%	–	–
